This is an account of results in patent US20060063759A1, “Tricyclic steroid hormone nuclear receptor modulators” (priority 2002, published 2006).

One experiment deals with T1, human MR (Homo sapiens, UniProt P08235).
T1 construct: The full length human MR gene is cloned from a human kidney or human brain cDNA library; His tag from the pAcHLT vector (own knowledge); made in house; host or cells: Sf9 insect cells (baculovirus, pAcHLT transfer vector)
T1 sequence (P08235 1-984): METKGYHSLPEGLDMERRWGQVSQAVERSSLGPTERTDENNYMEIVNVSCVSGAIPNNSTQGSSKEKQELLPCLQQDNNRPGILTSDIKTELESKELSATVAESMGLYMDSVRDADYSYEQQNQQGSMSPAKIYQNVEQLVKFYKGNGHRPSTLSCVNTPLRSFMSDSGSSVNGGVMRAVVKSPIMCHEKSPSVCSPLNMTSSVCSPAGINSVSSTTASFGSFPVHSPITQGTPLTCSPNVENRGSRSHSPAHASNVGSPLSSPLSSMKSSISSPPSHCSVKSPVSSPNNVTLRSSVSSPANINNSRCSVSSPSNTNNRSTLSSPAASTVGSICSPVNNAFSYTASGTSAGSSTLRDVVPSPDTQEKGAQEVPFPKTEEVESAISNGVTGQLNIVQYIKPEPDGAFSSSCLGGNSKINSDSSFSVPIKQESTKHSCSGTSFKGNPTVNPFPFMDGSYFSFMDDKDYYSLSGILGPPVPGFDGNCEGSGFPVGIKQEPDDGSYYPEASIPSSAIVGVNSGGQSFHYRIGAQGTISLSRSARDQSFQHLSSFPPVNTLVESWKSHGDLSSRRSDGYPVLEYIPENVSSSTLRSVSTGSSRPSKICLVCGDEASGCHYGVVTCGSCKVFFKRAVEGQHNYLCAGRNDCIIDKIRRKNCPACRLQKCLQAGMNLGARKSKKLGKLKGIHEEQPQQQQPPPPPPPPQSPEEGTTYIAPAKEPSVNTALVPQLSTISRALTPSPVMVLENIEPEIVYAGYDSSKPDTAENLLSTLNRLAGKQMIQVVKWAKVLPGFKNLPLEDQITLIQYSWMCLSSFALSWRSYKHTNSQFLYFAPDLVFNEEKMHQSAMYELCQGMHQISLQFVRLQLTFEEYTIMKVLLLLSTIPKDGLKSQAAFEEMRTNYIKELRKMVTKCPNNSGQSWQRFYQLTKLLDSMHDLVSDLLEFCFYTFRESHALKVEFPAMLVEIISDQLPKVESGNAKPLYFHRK
In words: Mineralocorticoid Receptor Binding Assay ([3H]-aldosterone). Particulars: [3H]-aldosterone binding, human MR expressed in Sf9 cells; read-out: MR Ki. The method, boiled down: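 Receptor source: freeze-thaw lysate of baculovirus-infected Sf9 cells carrying full-length human MR, 20-25 μg protein. Incubation ~16 h at 4 °C with shaking, pH 7.5 buffer containing 30 mM sodium molybdate and 10% glycerol.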

For another experiment, the target named is T2, glucocorticoid receptor (Homo sapiens, UniProt P04150).
T2 construct: containing 50-200 ug of A549 cell extract and 1.86 nM [^3H]-dexamethasone; host or cells: A549 human lung epithelial cells (sonicated cell extract)
T2 sequence (P04150 1-777): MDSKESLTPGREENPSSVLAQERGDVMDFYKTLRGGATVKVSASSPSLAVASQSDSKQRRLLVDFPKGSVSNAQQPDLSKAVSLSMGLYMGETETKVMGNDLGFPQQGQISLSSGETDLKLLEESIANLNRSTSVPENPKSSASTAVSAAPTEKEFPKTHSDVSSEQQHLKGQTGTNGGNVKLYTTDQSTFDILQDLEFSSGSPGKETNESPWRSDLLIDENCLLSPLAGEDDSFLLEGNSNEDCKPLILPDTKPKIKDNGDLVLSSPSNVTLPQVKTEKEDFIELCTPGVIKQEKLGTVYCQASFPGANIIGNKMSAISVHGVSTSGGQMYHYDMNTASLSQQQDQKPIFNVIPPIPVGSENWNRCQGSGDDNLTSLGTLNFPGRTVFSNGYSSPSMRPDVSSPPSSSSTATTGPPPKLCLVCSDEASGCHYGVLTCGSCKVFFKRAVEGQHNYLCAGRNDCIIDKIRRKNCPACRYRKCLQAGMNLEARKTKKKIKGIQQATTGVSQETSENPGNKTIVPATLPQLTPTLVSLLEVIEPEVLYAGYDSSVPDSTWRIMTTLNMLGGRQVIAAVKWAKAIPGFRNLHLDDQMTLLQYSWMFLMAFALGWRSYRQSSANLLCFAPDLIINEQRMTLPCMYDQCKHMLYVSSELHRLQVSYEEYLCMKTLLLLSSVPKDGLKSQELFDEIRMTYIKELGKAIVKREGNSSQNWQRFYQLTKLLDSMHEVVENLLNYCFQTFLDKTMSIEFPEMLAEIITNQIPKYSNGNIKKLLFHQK
In words: Glucocorticoid Receptor Binding Assay ([3H]-dexamethasone, A549 cell extract). The note with it: [3H]-dexamethasone binding, read-out: GR Ki. The method in brief:
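Displacement of [3H]-dexamethasone (1.86 nM) from glucocorticoid receptor in sonicated A549 lung epithelial cell extracts, 16 h at 4 °C, pH 7.2 molybdate-containing buffer. Bound radioactivity was scintillation-counted after charcoal/dextran stripping of free ligand.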

A value given as a limit tells only on which side of the number the result lay.

A word on the Ki: it is the equilibrium dissociation constant of an inhibitor or competing ligand from its target. Consider `CS(=O)(=O)Nc1cccc(/C=C2\c3ccccc3CS(=O)(=O)c3ccccc32)c1` [Example 264, N-[3-(10,10-Dioxo-10,11-dihydro-10λ^6-thia-dibenzo[a,d]cyclohepten-5-ylidenemethyl)-phenyl]-Methanesulfonamide], for which the Ki on human MR is less than 1000 nM; on glucocorticoid receptor, less than 10000 nM.

Take `CS(=O)(=O)Nc1cccc(/C=C2\c3ccccc3COc3ccccc32)c1` [Example 267, N-[3-(6H-Dibenzo[b,e]oxepine-11-ylidenemethyl)-phenyl]-methanesulfonamide]: the Ki on human MR and on glucocorticoid receptor was less than 500 nM throughout.

With `CS(=O)(=O)Nc1cccc(/C=C2/c3ccccc3COc3ccccc32)c1` [Example 268, N-[3-(6H-Dibenzo[b,e]oxepin-11-ylidenemethyl)-phenyl]-methanesulfonamide], the Ki at human MR and at glucocorticoid receptor was less than 500 nM in each case.

Consider `COc1cccc2c1OCc1ccccc1/C2=C\c1cccc(NS(C)(=O)=O)c1` [Example 271, N-[3-(4-Methoxy-6H-dibenzo[b,e]oxepin-11-ylidenemethyl)-phenyl]-methanesulfonamide], for which the Ki at human MR and at glucocorticoid receptor was less than 500 nM each time.

Take `CS(=O)(=O)Nc1cccc(/C=C2/c3ccccc3OCc3c(Cl)cccc32)c1` [Example 274, N-[3-(7-Chloro-6H-dibenzo[b,e]oxepin-11-ylidenemethyl)-phenyl]-methanesulfonamide]: the Ki on human MR and on glucocorticoid receptor was less than 500 nM each time.

Turning to `CS(=O)(=O)c1cccc(C=C2c3ccccc3CCc3ccccc32)c1` [Example 279, 5-(3-Methanesulfonyl-benzylidene)-10,11-dihydro-5H-dibenzo[a,d]cycloheptene], the results for the Ki at human MR and on glucocorticoid receptor were less than 500 nM and less than 10000 nM, respectively.

`N#CNc1cccc(C=C2c3ccccc3CCc3ccccc32)c1` [Example 280]: the results for the Ki at human MR and on glucocorticoid receptor were less than 500 nM and less than 1000 nM, respectively.

Take `O=S(=O)(Nc1cccc(C=C2c3ccccc3CCc3ccccc32)c1)C(F)(F)F` [Example 281]: the values for the Ki at human MR and at glucocorticoid receptor were less than 500 nM and less than 10000 nM, respectively.

As to `Cc1ccccc1CC1c2ccccc2CCc2ccccc21` [Example 282], the Ki on human MR and on glucocorticoid receptor was less than 500 nM in each case.

As for `FC(F)(F)c1ccccc1CC1c2ccccc2CCc2ccccc21` [Example 283], the figures for the Ki at human MR and on glucocorticoid receptor were less than 500 nM and less than 10000 nM, respectively.

In the case of `Cc1ccc(CC2c3ccccc3CCc3ccccc32)cc1NS(C)(=O)=O` [Example 286], the inhibition constant (Ki) at human MR is less than 500 nM; on glucocorticoid receptor, less than 10000 nM.

In the case of `Nc1ccccc1CC1c2ccccc2CCc2ccccc21` [Example 287], the Ki on human MR and on glucocorticoid receptor was less than 500 nM in each case.

For the molecule `O=S(=O)(Nc1cccc(C=C2c3ccccc3CCc3cc(Cl)ccc32)c1)c1ccc(Cl)cc1` [Example 290], the Ki at human MR is less than 500 nM; at glucocorticoid receptor, less than 1000 nM.

Take `O=S(=O)(Nc1cccc(C=C2c3ccccc3CCc3cc(Cl)ccc32)c1)c1ccc(F)cc1` [Example 291]: the inhibition constant (Ki) at human MR and at glucocorticoid receptor was less than 500 nM in each case.

For `Cc1ccc(S(=O)(=O)Nc2cccc(C=C3c4ccccc4CCc4cc(Cl)ccc43)c2)cc1` [Example 292], the inhibition constant (Ki) at human MR and at glucocorticoid receptor was less than 500 nM each time.

Consider `COc1ccc(S(=O)(=O)Nc2cccc(C=C3c4ccccc4CCc4cc(Cl)ccc43)c2)cc1` [Example 293], for which the Ki at human MR and at glucocorticoid receptor was less than 500 nM throughout.

As to `O=S(=O)(Nc1cccc(C=C2c3ccccc3CCc3cc(Cl)ccc32)c1)c1ccc(Cl)c(Cl)c1` [Example 294], the Ki is less than 500 nM at human MR and less than 10000 nM at glucocorticoid receptor.

For the molecule `O=S(=O)(Nc1cccc(C=C2c3ccccc3CCc3cc(Cl)ccc32)c1)c1cccs1` [Example 295], the Ki on human MR and on glucocorticoid receptor was less than 500 nM in each case.

On to `Cn1cnc(S(=O)(=O)Nc2cccc(C=C3c4ccccc4CCc4cc(Cl)ccc43)c2)c1` [Example 296], for which the results for the inhibitory constant (Ki) at human MR and at glucocorticoid receptor were less than 500 nM and less than 10000 nM, respectively.
